According to patent US20210127673A1, “HERBICIDES” (SYNGENTA PARTICIPATIONS AG, priority 2016, published 2021):

How the values were obtained:
Type in all cases: in vivo
Conditions in all cases: evaluated after 13 days
Lolium perenne (LOLPE) [1] = experiment: Pre-emergence herbicidal activity, Lolium perenne; design: key: 5=total damage to plant; 0=no damage to plant
How it was run: (§1)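 Seeds sown in standard soil in pots, grown one day in a glasshouse (24/16 °C day/night, 14 h light, 65% humidity), then sprayed pre-emergence with compound in acetone/water (50:50) containing 0.5% Tween 20. Plants were scored after 13 days on a 0–5 scale (5 = total damage, 0 = none).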

Avena fatua (AVEFA) [2] = experiment: Pre-emergence herbicidal activity, Avena fatua; design: key: 5=total damage to plant; 0=no damage to plant
How it was run: as §1

Setaria faberi (SETFA) [3] = experiment: Post-emergence herbicidal activity, Setaria faberi; design: key: 5=total damage to plant; 0=no damage to plant
How it was run: (§2)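 Glasshouse post-emergence spray test: seedlings treated at 8 days after sowing with compound formulated in 50:50 acetone/water plus 0.5% Tween 20, then grown on at 24/16 °C, 14 h light, 65% humidity. Injury rated 13 days later, 0 = no damage, 5 = total damage.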

[4] = system: Echinochloa crus-galli (ECHCG); experiment: Post-emergence herbicidal activity, Echinochloa crus-galli; design: key: 5=total damage to plant; 0=no damage to plant
How it was run: as §2

[5] = system: Alopecurus myosuroides (ALOMY); experiment: Post-emergence herbicidal activity, Alopecurus myosuroides; design: key: 5=total damage to plant; 0=no damage to plant
How it was run: as §2

Setaria faberi (SETFA) [6] = experiment: Pre-emergence herbicidal activity, Setaria faberi; design: key: 5=total damage to plant; 0=no damage to plant
How it was run: as §1

[7] = system: Triticum aestivium (TRZAW); experiment: Post-emergence herbicidal activity, Triticum aestivium; design: key: 5=total damage to plant; 0=no damage to plant
How it was run: as §2

[8] = system: Echinochloa crus-galli (ECHCG); experiment: Pre-emergence herbicidal activity, Echinochloa crus-galli
How it was run: as §1

[9] = system: Alopecurus myosuroides (ALOMY); experiment: Pre-emergence herbicidal activity, Alopecurus myosuroides; design: key: 5=total damage to plant; 0=no damage to plant
How it was run: as §1

Lolium perenne (LOLPE) [10] = experiment: Post-emergence herbicidal activity, Lolium perenne; design: key: 5=total damage to plant; 0=no damage to plant
How it was run: as §2

Avena fatua (AVEFA) [11] = experiment: Post-emergence herbicidal activity, Avena fatua
How it was run: as §2

[12] = system: Triticum aestivium (TRZAW); experiment: Pre-emergence herbicidal activity, Triticum aestivium; design: key: 5=total damage to plant; 0=no damage to plant
How it was run: as §1

SMILES	Control of LOLPE after pre-emergence application (score 0-5) (Lolium perenne (LOLPE) [1]; 1000 g/ha)	Control of AVEFA after pre-emergence application (score 0-5) (Avena fatua (AVEFA) [2]; 1000 g/ha)	Control of SETFA after post-emergence application (score 0-5) (Setaria faberi (SETFA) [3]; 1000 g/ha)	Control of ECHCG after post-emergence application (score 0-5) ([4]; 1000 g/ha)	Control of ALOMY after post-emergence application (score 0-5) ([5]; 1000 g/ha)	Control of SETFA after pre-emergence application (score 0-5) (Setaria faberi (SETFA) [6]; 1000 g/ha)	Control of TRAZW after post-emergence application (score 0-5) ([7]; 1000 g/ha)	Control of ECHCG after pre-emergence application (score 0-5) ([8]; 1000 g/ha)	Control of ALOMY after pre-emergence application (score 0-5) ([9]; 1000 g/ha)	Control of LOLPE after post-emergence application (score 0-5) (Lolium perenne (LOLPE) [10]; 1000 g/ha)	Control of AVEFA after post-emergence application (score 0-5) (Avena fatua (AVEFA) [11]; 1000 g/ha)	Control of TRAZW after pre-emergence application (score 0-5) ([12]; 1000 g/ha)	also measured
O=C(Nc1ccc(-c2cncc(F)c2)nc1C(F)(F)F)N1CCS(=O)(=O)C1 [Compound B116, N-[6-(5-fluoro-3-pyridyl)-2-(trifluoromethyl)-3-pyridyl]-1,1-dioxo-1,3-thiazolidine-3-carboxamide]	1	2	5	4	1	5	1	4	0	3	3	0	–
COCCOC(=O)Nc1ccc(-c2cncc(F)c2)nc1C(F)(F)F [Compound B59]	2	2	4	5	1	3	1	4	1	3	3	0	–
CCCCNC(=O)Nc1ccc(-c2cncc(F)c2)nc1C(F)(F)F [Compound B106]	–	–	–	–	–	–	–	–	–	–	–	–	Control of LOLPE after pre-emergence application (score 0-5) (Lolium perenne (LOLPE) [1]; 250 g/ha): 1; Control of AVEFA after pre-emergence application (score 0-5) (Avena fatua (AVEFA) [2]; 250 g/ha): 1; Control of SETFA after post-emergence application (score 0-5) (Setaria faberi (SETFA) [3]; 250 g/ha): 5; Control of ECHCG after post-emergence application (score 0-5) ([4]; 250 g/ha): 3; Control of ALOMY after post-emergence application (score 0-5) ([5]; 250 g/ha): 0; Control of SETFA after pre-emergence application (score 0-5) (Setaria faberi (SETFA) [6]; 250 g/ha): 5; Control of TRAZW after post-emergence application (score 0-5) ([7]; 250 g/ha): 0; Control of ECHCG after pre-emergence application (score 0-5) ([8]; 250 g/ha): 1; Control of ALOMY after pre-emergence application (score 0-5) ([9]; 250 g/ha): 0; Control of LOLPE after post-emergence application (score 0-5) (Lolium perenne (LOLPE) [10]; 250 g/ha): 1; Control of AVEFA after post-emergence application (score 0-5) (Avena fatua (AVEFA) [11]; 250 g/ha): 3; Control of TRAZW after pre-emergence application (score 0-5) ([12]; 250 g/ha): 0
CC(C)(C)OC(=O)Nc1ccc(-c2cncc(F)c2)nc1-c1ccccc1 [Compound B112, tert-butyl N-[6-(5-fluoro-3-pyridyl)-2-phenyl-3-pyridyl]carbamate]	0	0	3	1	0	4	0	3	0	0	1	0	–
CC(C)(C)NC(=O)Nc1ccc(-c2cncc(F)c2)nc1C(F)(F)F [Compound B65]	1	2	4	5	1	3	0	2	1	3	3	0	–
